From the supplement of paper PMC10307832

Tests used:
Test in all cases: relative viability (nuclei count vs DMSO), 5 days (fraction); higher = more cells survive
Bosutinib + Bortezomib = compound: COc1cc(Nc2c(C#N)cnc3cc(OCCCN4CCN(C)CC4)c(OC)cc23)c(Cl)cc1Cl [Bosutinib] + CC(C)C[C@H](NC(=O)[C@H](Cc1ccccc1)NC(=O)c1cnccn1)B(O)O [Bortezomib] (partner 0.002 µM)
In short: (§1)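 Relative viability equals treated-well nuclei counts divided by vehicle-well nuclei counts. Counts came from 4× images of lung cancer cell lines grown in 1536-well plates for 5 days after pin-tool dosing on the day after seeding. Dosing used one drug alone or a fixed anchor-drug dose plus five library-drug doses (not always all listed) in √10 steps, and values are medians of duplicate plates.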

Bosutinib + OSI-027 = compound: COc1cc(Nc2c(C#N)cnc3cc(OCCCN4CCN(C)CC4)c(OC)cc23)c(Cl)cc1Cl [Bosutinib] + COc1cccc2cc(-c3nc([C@H]4CC[C@H](C(=O)O)CC4)n4ncnc(N)c34)[nH]c12 [OSI-027] (partner 0.5 µM)
In short: as §1

Bosutinib + Crizotinib = compound: COc1cc(Nc2c(C#N)cnc3cc(OCCCN4CCN(C)CC4)c(OC)cc23)c(Cl)cc1Cl [Bosutinib] + C[C@@H](Oc1cc(-c2cnn(C3CCNCC3)c2)cnc1N)c1c(Cl)ccc(F)c1Cl [Crizotinib] (partner 1 µM)
In short: as §1

Bosutinib + Pemetrexed = compound: COc1cc(Nc2c(C#N)cnc3cc(OCCCN4CCN(C)CC4)c(OC)cc23)c(Cl)cc1Cl [Bosutinib] + Nc1nc2[nH]cc(CCc3ccc(C(=O)N[C@@H](CCC(=O)O)C(=O)O)cc3)c2c(=O)[nH]1 [Pemetrexed] (partner 0.2 µM)
In short: as §1

Bosutinib + Decitabine = compound: COc1cc(Nc2c(C#N)cnc3cc(OCCCN4CCN(C)CC4)c(OC)cc23)c(Cl)cc1Cl [Bosutinib] + Nc1ncn([C@H]2C[C@H](O)[C@@H](CO)O2)c(=O)n1 [Decitabine] (partner 2 µM)
In short: as §1

Cell Line	relative viability (Bosutinib + Bortezomib; first compound 0.01 µM)	relative viability (Bosutinib + Bortezomib; first compound 0.03162 µM)	relative viability (Bosutinib + Bortezomib; first compound 0.1 µM)	relative viability (Bosutinib + Bortezomib; first compound 1 µM)	relative viability (Bosutinib + OSI-027; first compound 0.01 µM)	relative viability (Bosutinib + OSI-027; first compound 0.03162 µM)	relative viability (Bosutinib + OSI-027; first compound 0.1 µM)	relative viability (Bosutinib + OSI-027; first compound 1 µM)	relative viability (Bosutinib + Crizotinib; first compound 0.01 µM)	relative viability (Bosutinib + Crizotinib; first compound 0.03162 µM)	relative viability (Bosutinib + Crizotinib; first compound 0.1 µM)	relative viability (Bosutinib + Crizotinib; first compound 1 µM)	relative viability (Bosutinib + Pemetrexed; first compound 0.01 µM)	relative viability (Bosutinib + Pemetrexed; first compound 0.03162 µM)	relative viability (Bosutinib + Pemetrexed; first compound 0.1 µM)	relative viability (Bosutinib + Pemetrexed; first compound 1 µM)	relative viability (Bosutinib + Decitabine; first compound 0.01 µM)	relative viability (Bosutinib + Decitabine; first compound 0.03162 µM)	relative viability (Bosutinib + Decitabine; first compound 0.1 µM)	relative viability (Bosutinib + Decitabine; first compound 1 µM)
201T	1.16	1.05	1.14	1.05	0.874	0.712	0.725	0.633	0.982	1.06	1.1	0.945	0.283	0.302	0.324	0.369	0.892	0.874	0.848	0.821
A-427	0.958	1.04	1.08	0.958	0.489	0.498	0.553	0.48	0.867	0.954	0.877	0.61	1.01	1.07	1.02	1.01	0.596	0.56	0.617	0.612
ABC-1	0.331	0.338	0.312	0.33	0.507	0.471	0.432	0.577	1.01	1.04	1.21	0.708					1.21	1.22	0.997	0.807
BEN	0.726	0.986	0.923	0.765	0.318	0.313	0.294	0.261	0.836	0.857	0.795	0.519	0.641	0.772	0.746	0.576	0.668	0.752	0.819	0.668
CAL-12T	0.888	1.15	1.18	1.01	0.735	0.637	0.803	0.565	0.543	0.7	0.638	0.362	1.09	1.26	1.29	1.18				
COR-L23	1.07	1.03	1.01	1.01	0.754	0.732	0.75	0.778	0.663	0.589	0.571	0.749	0.2	0.205	0.224	0.218	0.432	0.421	0.414	0.454
COR-L 105	0.778	0.9	0.705	0.446	0.623	0.669	0.698	0.479	0.938	0.798	0.617	0.507	1.22	1.1	0.979	0.777	0.642	0.608	0.72	0.47
ChaGo-K-1	0.922	1.12	1.12	1.37	0.568	0.501	0.576	0.647	1.21	1.14	1.09	1.17	0.244	0.26	0.249	0.265	0.496	0.536	0.511	0.518
EKVX	1.18	1.05	0.982	0.713	0.79	0.764	0.654	0.55	0.895	0.753	1.01	0.481	0.403	0.406	0.381	0.361	0.382	0.38	0.311	0.336
EMC-BAC-2	1.03	0.943	1.07	1.06	0.388	0.383	0.385	0.37	0.763	0.756	0.789	0.759	0.426	0.444	0.446	0.448	0.963	0.967	0.992	0.988
EPLC-272H	0.76	0.817	0.911	0.9	0.262	0.34	0.312	0.342	0.904	1.17	1.05	0.818	0.324	0.382	0.323	0.319	0.358	0.383	0.418	0.321
H3255	0.659	0.774	0.85	0.493	0.558	0.653	0.642	0.412	0.901	0.855	0.853	0.354	0.555	0.596	0.621	0.446		0.725	0.804	0.354
HARA	1.15	1.13	1.1	1.18	0.497	0.512	0.503	0.344	1.14	0.955	0.995	0.642	0.237	0.27	0.244	0.264	0.581	0.547	0.618	0.489
HCC-15	1.05	1.06	1.08	0.915	0.736	0.622	0.648	0.734	0.809	0.846	0.844	0.771	0.227	0.244	0.226	0.221	0.653	0.659	0.659	0.609
HCC-44	0.873	0.891	0.867	0.567	0.525	0.673	0.594	0.571	0.809	0.782	0.764	0.755	0.661	0.642	0.683	0.603	0.97	0.995	0.971	0.987
HCC-78	0.551	0.486	0.428	0.429	0.361	0.362	0.353	0.358	0.358	0.319	0.284	0.314	0.893	0.916	0.936	0.859	0.768	0.698	0.761	0.676
HCC-366	1.11	1.01	1.06	0.989	0.981	0.898	0.821	0.405	0.59	0.6	0.516	0.316	0.167	0.158	0.162	0.166	0.348	0.365	0.312	0.265
HCC-827	1.03	1	1.03	0.928	0.784	0.828	0.872	0.574	0.874	0.943	0.91	0.605	0.248	0.282	0.273	0.231	0.306	0.37	0.404	0.186

Cell Line	relative viability (Bosutinib + Bortezomib; first compound 0.01 µM)	relative viability (Bosutinib + Bortezomib; first compound 0.03162 µM)	relative viability (Bosutinib + Bortezomib; first compound 0.1 µM)	relative viability (Bosutinib + Bortezomib; first compound 1 µM)	relative viability (Bosutinib + OSI-027; first compound 0.01 µM)	relative viability (Bosutinib + OSI-027; first compound 0.03162 µM)	relative viability (Bosutinib + OSI-027; first compound 0.1 µM)	relative viability (Bosutinib + OSI-027; first compound 1 µM)	relative viability (Bosutinib + Crizotinib; first compound 0.01 µM)	relative viability (Bosutinib + Crizotinib; first compound 0.03162 µM)	relative viability (Bosutinib + Crizotinib; first compound 0.1 µM)	relative viability (Bosutinib + Crizotinib; first compound 1 µM)	relative viability (Bosutinib + Pemetrexed; first compound 0.01 µM)	relative viability (Bosutinib + Pemetrexed; first compound 0.03162 µM)	relative viability (Bosutinib + Pemetrexed; first compound 0.1 µM)	relative viability (Bosutinib + Pemetrexed; first compound 1 µM)	relative viability (Bosutinib + Decitabine; first compound 0.01 µM)	relative viability (Bosutinib + Decitabine; first compound 0.03162 µM)	relative viability (Bosutinib + Decitabine; first compound 0.1 µM)	relative viability (Bosutinib + Decitabine; first compound 1 µM)
HOP-62	0.839	0.755	0.548	0.904	0.801	0.848	0.942	0.875	0.897	0.949	0.964	0.986	0.297	0.414	0.317	0.317	0.208	0.215	0.209	0.253
IA-LM	0.797	0.827	0.881	0.8					0.733	0.777	0.839	0.688								
LC-2-ad	1.05	0.98	1.02	1.14	0.878	0.917	0.806	0.847	0.449	0.473	0.445	0.539	0.266	0.306	0.287	0.27	0.797	0.849	0.875	0.784
LCLC-97TM1	0.567	0.937	0.894	0.572	0.545	0.609	0.548	0.56	0.369	0.494	0.443	0.414	0.18	0.181	0.211	0.228	0.249	0.262	0.215	0.271
LCLC-103H	1.03	1.13	1.13	0.936	0.458	0.438	0.417	0.496	1.03	1.11	0.992	0.849	0.442	0.516	0.5	0.449	0.744	0.792	0.723	0.69
LK-2					0.256	0.253	0.192	0.185	0.258	0.227	0.248	0.224	0.235	0.281	0.321	0.266	0.278	0.363	0.313	0.359
NCI-H358					0.786	0.742	0.787	0.545	0.516	0.512	0.505	0.647	0.152	0.163	0.18	0.163	0.211	0.213	0.209	0.218
NCI-H727	0.913	0.777	0.969	0.71	0.605	0.817	0.564	0.529	0.725	0.885	0.701	0.378					0.848	1.03	0.909	0.764
NCI-H1395					0.679	0.662	0.771	0.629					0.964	0.966	0.958	0.926	0.687	0.756	0.688	0.735
NCI-H1563	0.885	0.775	0.784	0.659	0.794	0.831	0.761	0.717	0.896	0.753	0.753	0.658	0.655	0.771	0.772	0.638				
NCI-H1703	0.34	0.332	0.402	0.236					0.769	0.667	0.493	0.319								
NCI-H1793					0.254	0.276	0.262	0.23					0.86	0.792	0.829	0.639	0.505	0.505	0.436	0.436
NCI-H1944					0.436	0.412	0.379	0.374	1.16	1.07	1.09	0.946	0.706	0.624	0.555	0.601	0.477	0.49	0.472	0.393
NCI-H2170					0.7	0.684	0.732	0.654	1.25	1.14	1.15	1.06	0.261	0.262	0.251	0.26	0.429	0.465	0.463	0.457
NCI-H2228	1.03		1.16	1.12	0.489	0.533	0.577	0.609	0.472		0.402	0.333	0.354	0.308	0.361	0.319				
NCI-H2342					0.634	0.669	0.702	0.718					0.783	0.799	0.813	0.841	0.691	0.744	0.726	0.855
SK-MES-1					0.64	0.681	0.671	0.38	0.954	1.03	0.997	0.96	0.94	1.03	0.938	0.556	0.412	0.482	0.428	0.314
SW 900					0.51		0.591	0.455					0.465	0.501	0.462	0.39	0.408	0.438	0.427	0.424
